Drawing on patent US20110306621A1, “ACYLGUANIDINE DERIVATIVES” (priority 2009, published 2011), this text covers Ki for 64 compounds.

In the test the target is T1, human 5-HT5A receptor (Homo sapiens, UniProt P47898).
T1 construct: expressed in transfected cells; membranes used
In words: Test on a human 5-HT5A receptor binding inhibition ([3H]5-CT). The following applies: membrane from HEK293 cells for forced expression of human 5-HT5A receptor; Ki calculated from IC50 and Kd of [3H]5-CT (4.95 nM). How it is done:
The ORF (open reading frame; protein coding region) of a human 5-HT5A receptor (Genbank AF498985) was cloned from a human hippocampus cDNA library, and then inserted into a pCR2.1 vector (Invitrogen), and Escherichia coli containing the plasmid was cultured in a large amount. Next, the full-length cDNA sequence of the human 5-HT5A receptor was analyzed, and recombined into a pcDNA3.1 vector (Invitrogen) as an expression vector and cultured in a large amount. HEK293 established cells (ATCC) derived from the human fetal kidney were seeded, the expression plasmid (1 μg) obtained above were added thereto with LIPOFECTAMINE 2000 (Invitrogen; 2 μl), the gene was transfected into HEK293 cells, and the expression cells were screened with a drug-resistant marker, Geneticin (G418 sulfate 500 μg/ml; Kanto Chemical Co., Inc.). Thus prepared recombinant cells which expressed the gene were cultured in a medium containing D-MEM (Dulbecco's modified eagle medium, Sigma), 10% FCS (Fetal calf serum: fetal bovine serum), 1% Pc./Sm (Penicillin/Streptomycin, Invitrogen), and 500 μg/ml G418 for 3 days. These experimental operations followed a manual for gene operation experiment and an instruction appended in a reagent, and the like, such as a known method (Sambrook, J. et al, Molecular Cloning-A Laboratory Manual”, Cold Spring Harabor laboratory, NY, 1989).
HEK293 cells for forced expressions of a human 5-HT5A receptor were cultured in a F500 plate, and scraped with a scraper. After centrifugation, the precipitate was collected, and an incubation buffer (50 mM Tris (HCl) (pH 7.4), 10 mM MgSO4, and 0.5 mM EDTA (ethylenediamine tetraacetic acid)) was added thereto. After homogenization, it was further centrifuged, and the incubation buffer was added to the precipitate, followed by thoroughly suspending. The operation was repeated, and protein concentration was measured, thereby completing preparation of the membrane.
A solution of the compound to be tested and 100 μM 5-CT (5-carboxamidetriptamine) in DMSO was added to a 96-well plate at 2 μl/well, suspended in an incubation buffer, and a membrane from HEK293 cells for forced expressions of a human 5-HT5A receptor prepared at 200 μg/ml was added at 100 μl/well. After incubation at room temperature for 15 minutes, a [^3H]5-CT solution (2 nM [^3H]5-CT, incubation buffer) was added thereto at 100 μl/well.
Separately, 100 μl of the solution was distributed into a liquid scintillation vial, and 2 ml of Aquasol II (registered trademark) was added thereto, followed by stirring. Then, radioactivity was measured by a liquid scintillation counter. It was incubated at 37° C. for 60 minutes. The reaction mixture was sucked into 96-well GF/C filter plate that had been pre-treated with 0.2% polyethyleneimine, and washed six times with an ice-cooled, 50 mM Tris (pH 7.5) buffer. The GF/C filter plate was dried.
Microscint TMPS (registered trademark) was added thereto at 40 μl/well. Radioactivity remaining on the GF/C filter plate was measured by a top counter.
The [^3H]5-CT binding inhibiting activity by the compound to be tested in each experiment was determined as an IC50 value with a radioactivity upon addition of DMSO alone being 0% inhibition, and a radioactivity upon addition of 1 μM 5-CT being 100% inhibition. Separately, Ki values were calculated from the Kd value of the [^3H]5-CT determined from Scatchard analysis, by the following equation.
Ki=IC50 (1+Concentraion of ligand added/Kd (4.95 nM))

T1 sequence (P47898 whole entry): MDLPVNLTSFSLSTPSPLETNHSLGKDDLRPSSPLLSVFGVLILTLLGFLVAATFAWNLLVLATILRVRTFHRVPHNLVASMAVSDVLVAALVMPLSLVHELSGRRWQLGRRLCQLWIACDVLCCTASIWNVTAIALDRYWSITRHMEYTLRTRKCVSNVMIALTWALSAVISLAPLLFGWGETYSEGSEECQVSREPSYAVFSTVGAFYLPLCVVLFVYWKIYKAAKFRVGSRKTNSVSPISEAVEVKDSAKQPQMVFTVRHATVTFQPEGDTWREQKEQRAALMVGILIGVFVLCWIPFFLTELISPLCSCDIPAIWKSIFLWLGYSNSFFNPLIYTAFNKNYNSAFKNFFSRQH

As to `COc1ccc(-c2cccc3ccc(C(=O)N=C(N)N)cc23)c(C#N)c1` [Example 72], the Ki is 3 to 30 nM.

Regarding `NC(N)=NC(=O)c1ccc2cccc(-c3c(F)ccc(O)c3Cl)c2c1` [Example 119], the Ki is 0.3 to 3 nM.

Take `NC(N)=NC(=O)c1ccc2cccc(-c3ccc(Cl)cc3O)c2c1` [Example 150]: the Ki is 0.3 to 3 nM.

As to `COc1cccnc1-c1cccc2ccc(C(=O)N=C(N)N)cc12` [Example 195], the Ki was 30 to 300 nM.

Regarding `COc1ccc(C#N)cc1-c1cccc2ccc(C(=O)N=C(N)N)cc12` [Example 15], the Ki was 3 to 30 nM.

For the compound `N#Cc1c(F)cccc1-c1cccc2ccc(C(=O)N=C(N)N)cc12` [Example 29], the Ki was 3 to 30 nM.

As for `NC(N)=NC(=O)c1ccc2cccc(-c3ccncc3Cl)c2c1` [Example 44], the Ki is 0.3 to 3 nM.

For `COc1cccc(Cl)c1-c1cccc2ccc(C(=O)N=C(N)N)cc12` [Example 32], the Ki was 0.3 to 3 nM.

Consider `Cc1ccc(-c2cccc3ccc(C(=O)N=C(N)N)cc23)c(F)n1` [Example 86], for which the Ki is 3 to 30 nM.

For `COc1cc(-c2cccc3ccc(C(=O)N=C(N)N)cc23)ccn1` [Example 112], the Ki was 3 to 30 nM.

`NC(N)=NC(=O)c1ccc2cccc(-c3c(Cl)cncc3Cl)c2c1` [Example 45]: the Ki is 0.3 to 3 nM.

As to `Cc1nc2cccc(-c3cccc4ccc(C(=O)N=C(N)N)cc34)c2o1` [Example 144], the Ki is 3 to 30 nM.

`NC(N)=NC(=O)c1ccc2cccc(-c3c(O)ccc(F)c3F)c2c1` [Example 117]: the Ki is 0.3 to 3 nM.

For `NC(N)=NC(=O)c1ccc2cccc(-c3cccnc3F)c2c1` [Example 62], the Ki was 0.3 to 3 nM.

With `N#Cc1ccc(-c2cccc3ccc(C(=O)N=C(N)N)cc23)c(O)c1` [Example 132], the Ki is 0.3 to 3 nM.

Turning to `COc1ccc(F)c(-c2cccc3ccc(C(=O)N=C(N)N)cc23)c1` [Example 41], the Ki was 3 to 30 nM.

Consider `NC(N)=NC(=O)c1ccc2cccc(-c3ccnc(C4CC4)c3F)c2c1` [Example 198], for which the Ki was 0.3 to 3 nM.

In the case of `NC(N)=NC(=O)c1ccc2cccc(-c3ccc(F)cc3F)c2c1` [Example 35], the Ki is 0.3 to 3 nM.

For `COc1ccc(-c2cccc3ccc(C(=O)N=C(N)N)cc23)c(OC)c1` [Example 5], the Ki is 0.3 to 3 nM.

For the compound `NC(N)=NC(=O)c1ccc2cccc(-c3ccncc3)c2c1` [Example 133], the Ki is 3 to 30 nM.

`NC(N)=NC(=O)c1ccc2cccc(-c3cccc4c3OCCO4)c2c1` [Example 28]: the Ki was 3 to 30 nM.

For the compound `N#Cc1ccccc1-c1cccc2ccc(C(=O)N=C(N)N)cc12` [Example 20], the Ki was 3 to 30 nM.

On to `NC(N)=NC(=O)c1ccc2cccc(-c3ncc(C(F)(F)F)cc3Cl)c2c1` [Example 194], for which the Ki was 3 to 30 nM.

For `NC(N)=NC(=O)c1ccc2cccc(-c3cc(F)ccc3Cl)c2c1` [Example 78], the Ki is 0.3 to 3 nM.

Regarding `N#Cc1ncccc1-c1cccc2ccc(C(=O)N=C(N)N)cc12` [Example 56], the Ki was 3 to 30 nM.

As for `NC(N)=NC(=O)c1ccc2ccc(F)c(-c3ccncc3F)c2c1` [Example 113], the inhibition constant (Ki) is 0.3 to 3 nM.

Turning to `Cc1nc(-c2cccc3ccc(C(=O)N=C(N)N)cc23)ccc1F` [Example 158], the Ki was 30 to 300 nM.

In the case of `Cc1cc(-c2cccc3ccc(C(=O)N=C(N)N)cc23)ccn1` [Example 141], the Ki is 3 to 30 nM.

For the compound `Cc1ccc(-c2cccc3ccc(C(=O)N=C(N)N)cc23)cn1` [Example 24], the Ki is 3 to 30 nM.

As for `NC(N)=NC(=O)c1ccc2cccc(-c3c(F)cc(F)cc3Cl)c2c1` [Example 140], the Ki was 0.3 to 3 nM.

On to `NC(N)=NC(=O)c1ccc2cccc(-c3c(F)cc(F)c(O)c3F)c2c1` [Example 143], for which the Ki is 0.3 to 3 nM.

As for `NC(N)=NC(=O)c1ccc2cccc(-c3ccc(Cl)nc3Cl)c2c1` [Example 37], the Ki was 3 to 30 nM.

For the compound `Cc1nc(-c2ccc(-c3cccc4ccc(C(=O)N=C(N)N)cc34)cc2)no1` [Example 137], the Ki was 3 to 30 nM.

Take `NC(N)=NC(=O)c1ccc2cccc(-c3cccc(Cl)c3Cl)c2c1` [Example 75]: the Ki was 0.3 to 3 nM.

`N#Cc1cc(F)cc(F)c1-c1cccc2ccc(C(=O)N=C(N)N)cc12` [Example 149]: the Ki was 0.3 to 3 nM.

For `N#Cc1cnc(-c2cccc3ccc(C(=O)N=C(N)N)cc23)c(Cl)c1` [Example 196], the Ki is 3 to 30 nM.

Consider `COc1c(F)cccc1-c1cccc2ccc(C(=O)N=C(N)N)cc12` [Example 27], for which the Ki was 3 to 30 nM.

As for `NC(N)=NC(=O)c1ccc2cccc(-c3cc(C4CC4)ncc3Cl)c2c1` [Example 185], the Ki was 0.3 to 3 nM.

On to `NC(N)=NC(=O)c1ccc2cccc(-c3ccnc(Cl)c3)c2c1` [Example 53], for which the Ki is 3 to 30 nM.

Consider `NC(N)=NC(=O)c1ccc2cccc(-c3cccc(C(F)(F)F)n3)c2c1` [Example 154], for which the Ki is 3 to 30 nM.

`NC(N)=NC(=O)c1ccc2ccc(Cl)c(-c3ccccc3F)c2c1` [Example 110]: the Ki is 0.3 to 3 nM.

Regarding `COc1cc(C#N)ccc1-c1cccc2ccc(C(=O)N=C(N)N)cc12` [Example 3], the Ki is 0.3 to 3 nM.

Take `COc1cncc(-c2cccc3ccc(C(=O)N=C(N)N)cc23)c1` [Example 111]: the Ki is 30 to 300 nM.

Regarding `NC(N)=NC(=O)c1ccc2cccc(-c3cc(C(F)(F)F)ccn3)c2c1` [Example 176], the Ki is 30 to 300 nM.

`NC(N)=NC(=O)c1ccc2cccc(-c3c(F)ccc(O)c3F)c2c1` [Example 118]: the Ki was 0.3 to 3 nM.

Consider `NC(N)=NC(=O)c1ccc2ccc(F)c(-c3ccccc3O)c2c1` [Example 161], for which the Ki is 0.3 to 3 nM.

For the compound `Cc1nc(-c2ccccc2)sc1-c1cccc2ccc(C(=O)N=C(N)N)cc12` [Example 122], the Ki is 3 to 30 nM.

As to `NC(N)=NC(=O)c1ccc2cccc(-c3ccc(Cl)cn3)c2c1` [Example 153], the inhibition constant Ki was 3 to 30 nM.

For the compound `N#Cc1cccc(Cl)c1-c1cccc2ccc(C(=O)N=C(N)N)cc12` [Example 164], the Ki was 3 to 30 nM.

`Cc1cnc(-c2cccc3ccc(C(=O)N=C(N)N)cc23)c(Cl)c1` [Example 200]: the Ki was 3 to 30 nM.

With `N#Cc1ccc(-c2c(Cl)ccc3ccc(C(=O)N=C(N)N)cc23)cc1` [Example 125], the Ki was 0.3 to 3 nM.

For `COc1cccc(C#N)c1-c1cccc2ccc(C(=O)N=C(N)N)cc12` [Example 30], the Ki was 3 to 30 nM.

Consider `NC(N)=NC(=O)c1ccc2cccc(-c3cc(F)c(F)cc3F)c2c1` [Example 96], for which the Ki is 0.3 to 3 nM.

Take `COc1cc(F)cc(F)c1-c1cccc2ccc(C(=O)N=C(N)N)cc12` [Example 42]: the Ki was 0.3 to 3 nM.

As for `NC(N)=NC(=O)c1ccc2cccc(-c3ccnc4ccccc34)c2c1` [Example 129], the Ki is 0.3 to 3 nM.

As for `COc1ncccc1-c1c(Cl)ccc2ccc(C(=O)N=C(N)N)cc12` [Example 146], the inhibition constant Ki was 0.3 to 3 nM.

For `COc1ccccc1-c1c(Cl)cc(Cl)c2ccc(C(=O)N=C(N)N)cc12` [Example 136], the inhibitory constant (Ki) was 3 to 30 nM.

Take `NC(N)=NC(=O)c1ccc2cccc(-c3ccc(Cl)nc3)c2c1` [Example 54]: the Ki was 3 to 30 nM.

Take `CCOc1nccc(-c2cccc3ccc(C(=O)N=C(N)N)cc23)c1C#N` [Example 64]: the Ki is 3 to 30 nM.

Take `NC(N)=NC(=O)c1ccc2cccc(-c3cc(F)ncc3Cl)c2c1` [Example 65]: the Ki is 3 to 30 nM.

`NC(=O)c1cc(-c2cccc3ccc(C(=O)N=C(N)N)cc23)ccn1` [Example 171]: the Ki is 30 to 300 nM.

In the case of `NC(N)=NC(=O)c1ccc2cccc(-c3ncc(Cl)cc3F)c2c1` [Example 180], the Ki was 3 to 30 nM.

On to `NC(N)=NC(=O)c1ccc2cccc(-c3ncccc3F)c2c1` [Example 135], for which the Ki is 3 to 30 nM.

Regarding `NC(N)=NC(=O)c1ccc2cccc(C3CC3)c2c1` [Example 103], the Ki is 3 to 30 nM.

The term Ki denotes a measure of affinity in units of concentration, obtained from inhibition or displacement.
